Measured values reported in PubChem BioAssay AID1963980 (Molecular Pharmacology Branch, DTP, NCI, 2024).

Each compound was assayed on 475296-252-R-J1-PDC spheroid viability (assay: Anticancer human tumor 475296-252-R-J1-PDC patient-derived rectal carcinoma cell line growth inhibition [PI3K]). Settings: second compound 0.00316 µM; first compound 3.16 µM; active compounds read low; spheroids with HUVEC and MSC.
How it was run: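 Agents were dosed from a top concentration near clinical Cmax (otherwise 10 microM) in half-log decrements, alone or combined with PI3K inhibitors. The spheroids contain tumor cells plus endothelial (HUVEC) and MSC stroma; viability is measured.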
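Also: spheroids exposed to agents for seven days before readout.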

SMILES | viability, T/C [%]
C=CC(=O)N1CCN(c2nc(=O)n(-c3c(C)ccnc3C(C)C)c3nc(-c4c(O)cccc4F)c(F)cc23)C(C)C1 (configuration not stated) + CC(Nc1ccc2c(c1)OCCn1cc(N3C(=O)OCC3C(F)F)nc1-2)C(N)=O | 102
Cn1ncc(Cl)c1-c1cc(C(=O)NC(CN)Cc2cccc(F)c2)sc1Cl (configuration not stated) + CC(Nc1ccc2c(c1)OCCn1cc(N3C(=O)OCC3C(F)F)nc1-2)C(N)=O | 65
Cn1nccc1Nc1nccc(-c2ccn(C(CO)c3ccc(Cl)c(F)c3)c(=O)c2)n1 (configuration not stated) + CC(Nc1ccc2c(c1)OCCn1cc(N3C(=O)OCC3C(F)F)nc1-2)C(N)=O | 90.3

Same assay, conditions: second compound 0.00316 µM; first compound 10 µM; active compounds read low; spheroids with HUVEC and MSC

SMILES | viability, T/C [%]
C=CC(=O)N1CCN(c2nc(=O)n(-c3c(C)ccnc3C(C)C)c3nc(-c4c(O)cccc4F)c(F)cc23)C(C)C1 (configuration not stated) + CC(Nc1ccc2c(c1)OCCn1cc(N3C(=O)OCC3C(F)F)nc1-2)C(N)=O | 110
Cn1ncc(Cl)c1-c1cc(C(=O)NC(CN)Cc2cccc(F)c2)sc1Cl (configuration not stated) + CC(Nc1ccc2c(c1)OCCn1cc(N3C(=O)OCC3C(F)F)nc1-2)C(N)=O | 67.6
Cn1nccc1Nc1nccc(-c2ccn(C(CO)c3ccc(Cl)c(F)c3)c(=O)c2)n1 (configuration not stated) + CC(Nc1ccc2c(c1)OCCn1cc(N3C(=O)OCC3C(F)F)nc1-2)C(N)=O | 80.9

Same assay, conditions: second compound 0.01 µM; first compound 0.00316 µM; active compounds read low; spheroids with HUVEC and MSC

SMILES | viability, T/C [%]
CCN1CCN(Cc2ccc(Nc3ncc(F)c(-c4cc(F)c5nc(C)n(C(C)C)c5c4)n3)nc2)CC1 + CC(Nc1ccc2c(c1)OCCn1cc(N3C(=O)OCC3C(F)F)nc1-2)C(N)=O | 94.1

Same assay, conditions: second compound 0.01 µM; first compound 0.01 µM; active compounds read low; spheroids with HUVEC and MSC

SMILES | viability, T/C [%]
CCN1CCN(Cc2ccc(Nc3ncc(F)c(-c4cc(F)c5nc(C)n(C(C)C)c5c4)n3)nc2)CC1 + CC(Nc1ccc2c(c1)OCCn1cc(N3C(=O)OCC3C(F)F)nc1-2)C(N)=O | 87.8

Same assay, conditions: second compound 0.01 µM; first compound 0.0316 µM; active compounds read low; spheroids with HUVEC and MSC

SMILES | viability, T/C [%]
C=CC(=O)N1CCN(c2nc(=O)n(-c3c(C)ccnc3C(C)C)c3nc(-c4c(O)cccc4F)c(F)cc23)C(C)C1 (configuration not stated) + CC(Nc1ccc2c(c1)OCCn1cc(N3C(=O)OCC3C(F)F)nc1-2)C(N)=O | 90.2
CCN1CCN(Cc2ccc(Nc3ncc(F)c(-c4cc(F)c5nc(C)n(C(C)C)c5c4)n3)nc2)CC1 + CC(Nc1ccc2c(c1)OCCn1cc(N3C(=O)OCC3C(F)F)nc1-2)C(N)=O | 95.6
Cn1ncc(Cl)c1-c1cc(C(=O)NC(CN)Cc2cccc(F)c2)sc1Cl (configuration not stated) + CC(Nc1ccc2c(c1)OCCn1cc(N3C(=O)OCC3C(F)F)nc1-2)C(N)=O | 105
Cn1nccc1Nc1nccc(-c2ccn(C(CO)c3ccc(Cl)c(F)c3)c(=O)c2)n1 (configuration not stated) + CC(Nc1ccc2c(c1)OCCn1cc(N3C(=O)OCC3C(F)F)nc1-2)C(N)=O | 96.8

Same assay, conditions: second compound 0.01 µM; first compound 0.1 µM; active compounds read low; spheroids with HUVEC and MSC

SMILES | viability, T/C [%]
C=CC(=O)N1CCN(c2nc(=O)n(-c3c(C)ccnc3C(C)C)c3nc(-c4c(O)cccc4F)c(F)cc23)C(C)C1 (configuration not stated) + CC(Nc1ccc2c(c1)OCCn1cc(N3C(=O)OCC3C(F)F)nc1-2)C(N)=O | 84.9
CCN1CCN(Cc2ccc(Nc3ncc(F)c(-c4cc(F)c5nc(C)n(C(C)C)c5c4)n3)nc2)CC1 + CC(Nc1ccc2c(c1)OCCn1cc(N3C(=O)OCC3C(F)F)nc1-2)C(N)=O | 85.1
Cn1ncc(Cl)c1-c1cc(C(=O)NC(CN)Cc2cccc(F)c2)sc1Cl (configuration not stated) + CC(Nc1ccc2c(c1)OCCn1cc(N3C(=O)OCC3C(F)F)nc1-2)C(N)=O | 78.6
Cn1nccc1Nc1nccc(-c2ccn(C(CO)c3ccc(Cl)c(F)c3)c(=O)c2)n1 (configuration not stated) + CC(Nc1ccc2c(c1)OCCn1cc(N3C(=O)OCC3C(F)F)nc1-2)C(N)=O | 97.9

Same assay, conditions: second compound 0.01 µM; first compound 0.316 µM; active compounds read low; spheroids with HUVEC and MSC

SMILES | viability, T/C [%]
C=CC(=O)N1CCN(c2nc(=O)n(-c3c(C)ccnc3C(C)C)c3nc(-c4c(O)cccc4F)c(F)cc23)C(C)C1 (configuration not stated) + CC(Nc1ccc2c(c1)OCCn1cc(N3C(=O)OCC3C(F)F)nc1-2)C(N)=O | 101
CCN1CCN(Cc2ccc(Nc3ncc(F)c(-c4cc(F)c5nc(C)n(C(C)C)c5c4)n3)nc2)CC1 + CC(Nc1ccc2c(c1)OCCn1cc(N3C(=O)OCC3C(F)F)nc1-2)C(N)=O | 89.5
Cn1ncc(Cl)c1-c1cc(C(=O)NC(CN)Cc2cccc(F)c2)sc1Cl (configuration not stated) + CC(Nc1ccc2c(c1)OCCn1cc(N3C(=O)OCC3C(F)F)nc1-2)C(N)=O | 74.1
Cn1nccc1Nc1nccc(-c2ccn(C(CO)c3ccc(Cl)c(F)c3)c(=O)c2)n1 (configuration not stated) + CC(Nc1ccc2c(c1)OCCn1cc(N3C(=O)OCC3C(F)F)nc1-2)C(N)=O | 94.4

Same assay, conditions: second compound 0.01 µM; first compound 1 µM; active compounds read low; spheroids with HUVEC and MSC

SMILES | viability, T/C [%]
C=CC(=O)N1CCN(c2nc(=O)n(-c3c(C)ccnc3C(C)C)c3nc(-c4c(O)cccc4F)c(F)cc23)C(C)C1 (configuration not stated) + CC(Nc1ccc2c(c1)OCCn1cc(N3C(=O)OCC3C(F)F)nc1-2)C(N)=O | 102
CCN1CCN(Cc2ccc(Nc3ncc(F)c(-c4cc(F)c5nc(C)n(C(C)C)c5c4)n3)nc2)CC1 + CC(Nc1ccc2c(c1)OCCn1cc(N3C(=O)OCC3C(F)F)nc1-2)C(N)=O | 87.9
Cn1ncc(Cl)c1-c1cc(C(=O)NC(CN)Cc2cccc(F)c2)sc1Cl (configuration not stated) + CC(Nc1ccc2c(c1)OCCn1cc(N3C(=O)OCC3C(F)F)nc1-2)C(N)=O | 73
Cn1nccc1Nc1nccc(-c2ccn(C(CO)c3ccc(Cl)c(F)c3)c(=O)c2)n1 (configuration not stated) + CC(Nc1ccc2c(c1)OCCn1cc(N3C(=O)OCC3C(F)F)nc1-2)C(N)=O | 89.1

Same assay, conditions: second compound 0.01 µM; first compound 3.16 µM; active compounds read low; spheroids with HUVEC and MSC

SMILES | viability, T/C [%]
C=CC(=O)N1CCN(c2nc(=O)n(-c3c(C)ccnc3C(C)C)c3nc(-c4c(O)cccc4F)c(F)cc23)C(C)C1 (configuration not stated) + CC(Nc1ccc2c(c1)OCCn1cc(N3C(=O)OCC3C(F)F)nc1-2)C(N)=O | 102
Cn1ncc(Cl)c1-c1cc(C(=O)NC(CN)Cc2cccc(F)c2)sc1Cl (configuration not stated) + CC(Nc1ccc2c(c1)OCCn1cc(N3C(=O)OCC3C(F)F)nc1-2)C(N)=O | 73.8
Cn1nccc1Nc1nccc(-c2ccn(C(CO)c3ccc(Cl)c(F)c3)c(=O)c2)n1 (configuration not stated) + CC(Nc1ccc2c(c1)OCCn1cc(N3C(=O)OCC3C(F)F)nc1-2)C(N)=O | 92.1

Same assay, conditions: second compound 0.01 µM; first compound 10 µM; active compounds read low; spheroids with HUVEC and MSC

SMILES | viability, T/C [%]
C=CC(=O)N1CCN(c2nc(=O)n(-c3c(C)ccnc3C(C)C)c3nc(-c4c(O)cccc4F)c(F)cc23)C(C)C1 (configuration not stated) + CC(Nc1ccc2c(c1)OCCn1cc(N3C(=O)OCC3C(F)F)nc1-2)C(N)=O | 97.8
Cn1ncc(Cl)c1-c1cc(C(=O)NC(CN)Cc2cccc(F)c2)sc1Cl (configuration not stated) + CC(Nc1ccc2c(c1)OCCn1cc(N3C(=O)OCC3C(F)F)nc1-2)C(N)=O | 70.5
Cn1nccc1Nc1nccc(-c2ccn(C(CO)c3ccc(Cl)c(F)c3)c(=O)c2)n1 (configuration not stated) + CC(Nc1ccc2c(c1)OCCn1cc(N3C(=O)OCC3C(F)F)nc1-2)C(N)=O | 74

Same assay, conditions: second compound 0.0316 µM; first compound 0.00316 µM; active compounds read low; spheroids with HUVEC and MSC

SMILES | viability, T/C [%]
CCN1CCN(Cc2ccc(Nc3ncc(F)c(-c4cc(F)c5nc(C)n(C(C)C)c5c4)n3)nc2)CC1 + CC(Nc1ccc2c(c1)OCCn1cc(N3C(=O)OCC3C(F)F)nc1-2)C(N)=O | 95.3

Same assay, conditions: second compound 0.0316 µM; first compound 0.01 µM; active compounds read low; spheroids with HUVEC and MSC

SMILES | viability, T/C [%]
CCN1CCN(Cc2ccc(Nc3ncc(F)c(-c4cc(F)c5nc(C)n(C(C)C)c5c4)n3)nc2)CC1 + CC(Nc1ccc2c(c1)OCCn1cc(N3C(=O)OCC3C(F)F)nc1-2)C(N)=O | 92.3

Same assay, conditions: second compound 0.0316 µM; first compound 0.0316 µM; active compounds read low; spheroids with HUVEC and MSC

SMILES | viability, T/C [%]
C=CC(=O)N1CCN(c2nc(=O)n(-c3c(C)ccnc3C(C)C)c3nc(-c4c(O)cccc4F)c(F)cc23)C(C)C1 (configuration not stated) + CC(Nc1ccc2c(c1)OCCn1cc(N3C(=O)OCC3C(F)F)nc1-2)C(N)=O | 88.3
CCN1CCN(Cc2ccc(Nc3ncc(F)c(-c4cc(F)c5nc(C)n(C(C)C)c5c4)n3)nc2)CC1 + CC(Nc1ccc2c(c1)OCCn1cc(N3C(=O)OCC3C(F)F)nc1-2)C(N)=O | 86.7
Cn1ncc(Cl)c1-c1cc(C(=O)NC(CN)Cc2cccc(F)c2)sc1Cl (configuration not stated) + CC(Nc1ccc2c(c1)OCCn1cc(N3C(=O)OCC3C(F)F)nc1-2)C(N)=O | 92.6
Cn1nccc1Nc1nccc(-c2ccn(C(CO)c3ccc(Cl)c(F)c3)c(=O)c2)n1 (configuration not stated) + CC(Nc1ccc2c(c1)OCCn1cc(N3C(=O)OCC3C(F)F)nc1-2)C(N)=O | 101

Same assay, conditions: second compound 0.0316 µM; first compound 0.1 µM; active compounds read low; spheroids with HUVEC and MSC

SMILES | viability, T/C [%]
C=CC(=O)N1CCN(c2nc(=O)n(-c3c(C)ccnc3C(C)C)c3nc(-c4c(O)cccc4F)c(F)cc23)C(C)C1 (configuration not stated) + CC(Nc1ccc2c(c1)OCCn1cc(N3C(=O)OCC3C(F)F)nc1-2)C(N)=O | 97.2
CCN1CCN(Cc2ccc(Nc3ncc(F)c(-c4cc(F)c5nc(C)n(C(C)C)c5c4)n3)nc2)CC1 + CC(Nc1ccc2c(c1)OCCn1cc(N3C(=O)OCC3C(F)F)nc1-2)C(N)=O | 99.3
Cn1ncc(Cl)c1-c1cc(C(=O)NC(CN)Cc2cccc(F)c2)sc1Cl (configuration not stated) + CC(Nc1ccc2c(c1)OCCn1cc(N3C(=O)OCC3C(F)F)nc1-2)C(N)=O | 88.1
Cn1nccc1Nc1nccc(-c2ccn(C(CO)c3ccc(Cl)c(F)c3)c(=O)c2)n1 (configuration not stated) + CC(Nc1ccc2c(c1)OCCn1cc(N3C(=O)OCC3C(F)F)nc1-2)C(N)=O | 105

Same assay, conditions: second compound 0.0316 µM; first compound 0.316 µM; active compounds read low; spheroids with HUVEC and MSC

SMILES | viability, T/C [%]
C=CC(=O)N1CCN(c2nc(=O)n(-c3c(C)ccnc3C(C)C)c3nc(-c4c(O)cccc4F)c(F)cc23)C(C)C1 (configuration not stated) + CC(Nc1ccc2c(c1)OCCn1cc(N3C(=O)OCC3C(F)F)nc1-2)C(N)=O | 91.2
CCN1CCN(Cc2ccc(Nc3ncc(F)c(-c4cc(F)c5nc(C)n(C(C)C)c5c4)n3)nc2)CC1 + CC(Nc1ccc2c(c1)OCCn1cc(N3C(=O)OCC3C(F)F)nc1-2)C(N)=O | 87.6
